Measurements reported in US8637484B2, “Modulation of growth hormone receptor expression and insulin-like growth factor expression” (Antisense Therapeutic Limited, priority 2003, dated 2014).
Marks after values point to notes of the source that are not given here. In the oligonucleotide strings, read from the 5' end, every base follows the letter of its sugar. An asterisk marks phosphorothioate; unmarked linkages are phosphodiester. Other units and linkages are bracketed, terminal groups are in braces. A string of capitals states the bases alone. e = 2'-O-(2-methoxyethyl) (MOE); [5mC] = 5-methylcytosine; d = 2'-deoxy (DNA)

System: blood vessel profiles (BVPs) in the inner retina
Test: Oxygen-induced retinopathy (ROP) in mice, blood vessel profiles in the inner retina
Type: in vivo, mouse
Description: Oxygen-induced retinopathy (also called retinopathy of prematurity or ROP) in laboratory animals is a widely used model for the study of retinal microvascular complications. Wilkinson-Berka et al., 2003, Invest. Opthalmol. V is Sci. 44, 974; Morayski, C. et al., 2000, Hypertension, 36,1099-1104.
To produce ROP, seven-day-old mice were placed in an infant incubator with their nursing mother in 75% oxygen from postnatal day 7 to day 12 as described in the literature. Smith et al., 1994, Invest Ophthalmol V is Sci 35, 101-111; Robinson et al., Proc Natl Acad Sci USA., 1996, May 14; 93, 4851-6. On postnatal day 12, the animals were returned to room air. Animals were sacrificed on postnatal day 17 when maximal neovascularization is observed. Sham-treated animals are handled similarly but are maintained in room air at all times.
Mice were dosed with antisense oligonucleotide in saline (total volume […]) at postnatal days 12, 13, 14, 15, and 16 or days 7, 8, 9, 11, 13, 15 and 17. Oligonucleotide was administered intraperitoneally at concentrations of 5, 10, 20 and 30 mg/kg. The mismatch control ISIS 261303 is also given.
Blood vessel profiles (BVPs) in the inner retina are quantitated in eyes from 36 experimental groups. Each group contains 8 retina from 8 different mice. Tables 7, 8 and 9 indicate 1) from which groups eyes have been collected to date for sectioning and 2) how many animals have had BVPs quantitated to date in each experimental group.
“Early intervention” (“Early I” in Tables 8-10) is used to describe mice pups that have been administered agents at postnatal days 7, 8, 9, 11, 13, 15 and 17 (7 doses). “Late intervention” (“Late I” in Tables 7-10) is used to describe mice pups administered agents at postnatal days 12, 13, 14, 15 and 16 (5 doses). All treatments were by intraperitoneal injection. Counting of blood vessel profiles (BVPs) in the inner retina is performed in a masked manner by investigators blinded to the experimental groups.

Q: For “acaaagatccatacctgaga (eA*e[5mC]*eA*eA*eA*dG*dA*dT*d[5mC]*d[5mC]*dA*dT*dA*d[5mC]*d[5mC]*eT*eG*eA*eG*eA; antisense) [ISIS 227446]”, which “Average # BVPs” value (ROP + 5 mg/kg ip, Early I) is on record?
A: 28.25

Q: And the “Average # BVPs” value (ROP + 5 mg/kg ip, Late I)?
A: 25.19

Q: And the “Average # BVPs” value (ROP + 10 mg/kg ip, Early I)?
A: 23.18

Q: What about the “Average # BVPs” value (ROP + 30 mg/kg ip, Late I) of the same substance?
A: 24.24

Q: What about the “Average # BVPs” value (Sham + 20 mg/kg ip, Early I (postnatal days 7, 8, 9, 11, 13, 15, 17)) of the same substance?
A: 9.97*

Q: And the “Average # BVPs” value (Sham + 30 mg/kg ip, Early I)?
A: 10.94*

Q: What about the “Average # BVPs” value (Sham + 30 mg/kg ip, Late I (postnatal days 12-16)) of the same substance?
A: 11.25*

Q: And the “effect on blood vessel profiles in sham-treated (no retinopathy) mice” value (early intervention)?
A: no effect
